For 20 molecules, IC50 results are on record in patent US10065963B2 (Incyte Corporation, priority 2015, dated 2018).

Counter-ions that a name gives are not always drawn. Like-named read-outs stand apart in the source and are kept apart here. A value given as a limit tells only on which side of the number the result lay.

For test [1], the target named is PI3Kγ (p110γ) Recombinant Human Protein (Homo sapiens (Human), UniProt P48736). Put plainly: PI3K-γ scintillation proximity assay. To be noted: 2 μM ATP, 20 μM PIP2. In kind it is biochemical. On the technique in general: Scintillation proximity formats need no separation of bound from free tracer.
PI3Kγ (p110γ) Recombinant Human Protein, sequence (P48736 whole entry): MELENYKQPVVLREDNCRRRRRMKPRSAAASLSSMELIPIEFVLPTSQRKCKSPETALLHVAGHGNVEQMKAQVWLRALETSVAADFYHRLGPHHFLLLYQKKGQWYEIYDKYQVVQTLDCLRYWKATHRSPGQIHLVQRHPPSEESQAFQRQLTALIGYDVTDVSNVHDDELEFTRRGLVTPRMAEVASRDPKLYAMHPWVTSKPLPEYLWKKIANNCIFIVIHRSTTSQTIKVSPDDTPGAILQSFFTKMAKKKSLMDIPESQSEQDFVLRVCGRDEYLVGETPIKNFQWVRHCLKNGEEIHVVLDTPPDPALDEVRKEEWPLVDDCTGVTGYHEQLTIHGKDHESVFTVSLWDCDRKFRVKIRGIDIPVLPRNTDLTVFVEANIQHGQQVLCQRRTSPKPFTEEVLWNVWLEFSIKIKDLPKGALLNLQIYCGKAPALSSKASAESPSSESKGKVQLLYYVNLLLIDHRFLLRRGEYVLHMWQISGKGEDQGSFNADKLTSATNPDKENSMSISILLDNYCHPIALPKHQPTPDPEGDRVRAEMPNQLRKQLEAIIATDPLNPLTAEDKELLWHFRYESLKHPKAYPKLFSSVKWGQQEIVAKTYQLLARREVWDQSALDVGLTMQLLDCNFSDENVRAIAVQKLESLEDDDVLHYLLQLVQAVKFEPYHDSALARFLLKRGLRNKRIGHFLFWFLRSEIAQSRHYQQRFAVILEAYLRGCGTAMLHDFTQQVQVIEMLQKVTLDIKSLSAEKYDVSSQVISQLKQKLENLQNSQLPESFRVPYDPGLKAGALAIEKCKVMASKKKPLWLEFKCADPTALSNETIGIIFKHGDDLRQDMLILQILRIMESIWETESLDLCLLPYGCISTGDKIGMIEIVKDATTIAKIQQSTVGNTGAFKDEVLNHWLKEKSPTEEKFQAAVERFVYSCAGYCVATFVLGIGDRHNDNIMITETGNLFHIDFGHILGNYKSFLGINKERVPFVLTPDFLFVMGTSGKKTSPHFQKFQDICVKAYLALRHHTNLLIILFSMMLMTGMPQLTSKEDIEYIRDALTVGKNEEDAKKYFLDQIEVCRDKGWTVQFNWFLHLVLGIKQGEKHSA
Test [2] deals with Phosphorylated Ribosomal Protein S6 (RPS6) in THP-1 cells. Nature of the test: THP-1 RPS6 ELISA assay. In kind it is cell-based, human. As to conditions: 10 nM MCP-1, read-out: PI3Kγ_THP1_RPS6_ELISA IC50. A general note: In an ELISA, binding on a coated surface is turned into a signal by an enzyme label.
Test [3] has as its target PI3Kδ (p110δ/p85α) Recombinant Human Protein (Homo sapiens (Human), UniProt O00329). Nature of the test: PI3Kδ scintillation proximity assay. The format is biochemical. To be noted: 2 μM ATP, 20 μM PIP2.
Setting [4] is: Homo sapiens, THP-1, THP-1 cells.

A word on the IC50: it is the concentration that inhibits the measured activity by half.

PI3Kδ (p110δ/p85α) Recombinant Human Protein, sequence (O00329 whole entry): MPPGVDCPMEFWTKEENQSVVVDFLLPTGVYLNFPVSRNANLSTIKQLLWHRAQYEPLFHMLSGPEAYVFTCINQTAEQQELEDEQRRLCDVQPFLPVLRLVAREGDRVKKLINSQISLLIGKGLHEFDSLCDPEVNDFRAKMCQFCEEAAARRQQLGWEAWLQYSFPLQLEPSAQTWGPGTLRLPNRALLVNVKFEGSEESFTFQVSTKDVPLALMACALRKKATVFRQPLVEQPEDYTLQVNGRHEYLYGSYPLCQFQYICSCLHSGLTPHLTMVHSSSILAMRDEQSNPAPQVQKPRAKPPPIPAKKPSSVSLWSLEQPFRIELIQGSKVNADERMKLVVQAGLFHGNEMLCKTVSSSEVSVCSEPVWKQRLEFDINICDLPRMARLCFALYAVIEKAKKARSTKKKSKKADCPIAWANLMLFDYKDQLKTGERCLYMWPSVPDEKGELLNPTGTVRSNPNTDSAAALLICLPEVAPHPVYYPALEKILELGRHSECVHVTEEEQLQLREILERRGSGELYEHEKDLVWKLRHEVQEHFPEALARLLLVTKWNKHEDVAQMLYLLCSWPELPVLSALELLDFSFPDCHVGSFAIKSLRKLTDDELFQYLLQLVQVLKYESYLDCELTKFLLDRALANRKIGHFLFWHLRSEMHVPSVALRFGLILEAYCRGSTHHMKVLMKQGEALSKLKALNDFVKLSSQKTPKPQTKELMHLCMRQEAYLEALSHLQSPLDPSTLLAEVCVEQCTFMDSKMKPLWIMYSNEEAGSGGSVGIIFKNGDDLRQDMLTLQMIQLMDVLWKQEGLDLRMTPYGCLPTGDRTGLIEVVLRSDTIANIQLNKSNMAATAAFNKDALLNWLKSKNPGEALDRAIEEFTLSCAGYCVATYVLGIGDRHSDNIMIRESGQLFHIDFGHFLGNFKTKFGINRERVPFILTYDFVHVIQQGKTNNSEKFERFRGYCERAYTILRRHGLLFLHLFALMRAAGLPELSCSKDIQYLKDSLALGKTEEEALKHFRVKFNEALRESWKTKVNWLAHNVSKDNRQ
PI3Kδ (p110δ/p85α) Recombinant Human Protein, sequence (P27986 whole entry partner): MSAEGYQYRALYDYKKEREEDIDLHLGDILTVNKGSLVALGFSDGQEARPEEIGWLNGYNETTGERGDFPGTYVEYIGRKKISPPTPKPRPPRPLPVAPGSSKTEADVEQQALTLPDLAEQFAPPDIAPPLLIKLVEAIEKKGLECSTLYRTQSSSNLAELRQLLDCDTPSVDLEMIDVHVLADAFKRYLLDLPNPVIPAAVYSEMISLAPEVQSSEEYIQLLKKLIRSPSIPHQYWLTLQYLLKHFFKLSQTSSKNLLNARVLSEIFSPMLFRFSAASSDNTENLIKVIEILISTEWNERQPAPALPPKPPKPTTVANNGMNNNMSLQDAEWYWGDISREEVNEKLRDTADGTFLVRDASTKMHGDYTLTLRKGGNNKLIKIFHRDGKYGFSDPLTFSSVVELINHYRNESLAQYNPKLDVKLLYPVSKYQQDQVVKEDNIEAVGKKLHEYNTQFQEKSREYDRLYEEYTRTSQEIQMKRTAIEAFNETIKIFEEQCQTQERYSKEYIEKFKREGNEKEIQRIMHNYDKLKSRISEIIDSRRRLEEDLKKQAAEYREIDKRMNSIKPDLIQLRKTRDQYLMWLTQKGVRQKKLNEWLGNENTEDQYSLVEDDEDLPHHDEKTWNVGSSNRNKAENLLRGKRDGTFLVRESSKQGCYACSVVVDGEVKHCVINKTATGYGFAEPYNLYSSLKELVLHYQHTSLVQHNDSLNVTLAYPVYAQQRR

As for `CC(NC(=O)c1c(N)nn2cccnc12)c1cc(Cl)c2c(Cl)ncn2c1N1CCC(C#N)CC1` (racemic) [Example 163, 2-Amino-N-{1-[1,8-dichloro-5-(4-cyanopiperidin-1-yl)imidazo[1,5-a]pyridin-6-yl]ethyl}pyrazolo[1,5-a]pyrimidine-3-carboxamide trifluoroacetate salt], the half-maximal inhibitory concentration (IC50) in test [1] is under 100 nM; in test [2] (setting [4]), under 500 nM; in test [3] it was under 100 nM.
On to `CC(NC(=O)c1c(N)nn2cccnc12)c1cc(Cl)c2c(C#N)ncn2c1N1CCS(=O)(=O)CC1` (racemic) [Example 164, 2-Amino-N-{1-[8-chloro-1-cyano-5-(1,1-dioxidothiomorpholin-4-yl)imidazo[1,5-a]pyridin-6-yl]ethyl}pyrazolo[1,5-a]pyrimidine-3-carboxamide trifluoroacetate salt], for which the figures for the IC50 in test [1], in test [2] (setting [4]) and in test [3] were under 100 nM, over 1000 nM and under 2000 nM, respectively.
The like results for `CC1CN(c2c(CNC(=O)c3c(N)nn4cccnc34)cc(Cl)c3cncn23)CCS1(=O)=O` (racemic) [Example 167, 2-Amino-N-((8-chloro-5-(2-methyl-1,1-dioxidothiomorpholino)imidazo[1,5-a]pyridin-6-yl)methyl)pyrazolo[1,5-a]pyrimidine-3-carboxamide trifluoroacetate salt] were, in that order, under 100 nM, under 500 nM and under 500 nM.
The matching figures for `CC1CN(c2c(CNC(=O)c3c(N)nn4cccnc34)cc(Cl)c3c(Cl)ncn23)CCS1(=O)=O` (racemic) [Example 169, 2-Amino-N-((1,8-dichloro-5-(2-methyl-1,1-dioxidothiomorpholino)imidazo[1,5-a]pyridin-6-yl)methyl)pyrazolo[1,5-a]pyrimidine-3-carboxamide trifluoroacetate salt]: under 100 nM, under 500 nM and under 500 nM.
The matching figures for `Nc1nn2cccnc2c1C(=O)NC(c1cc(Cl)c2cncn2c1N1CCS(=O)(=O)CC1)C(F)(F)F` (racemic) [Example 180, 2-Amino-N-{1-[8-chloro-5-(1,1-dioxidothiomorpholin-4-yl)imidazo[1,5-a]pyridin-6-yl]-2,2,2-trifluoroethyl}pyrazolo[1,5-a]pyrimidine-3-carboxamide trifluoroacetate salt]: under 100 nM, under 500 nM and under 100 nM.
For the molecule `CC(C)C(NC(=O)c1c(N)nn2cccnc12)c1cc(Cl)c2cncn2c1N1CCS(=O)(=O)CC1` (racemic) [Example 181, 2-Amino-N-(1-(8-chloro-5-(1,1-dioxidothiomorpholino)imidazo[1,5-a]pyridin-6-yl)-2-methylpropyl)pyrazolo[1,5-a]pyrimidine-3-carboxamide trifluoroacetate salt], the results for the IC50 in test [1], in test [2] (setting [4]) and in test [3] were under 100 nM, under 500 nM and under 100 nM, respectively.
`Nc1nn2cccnc2c1C(=O)NC(c1cc(Cl)c2cncn2c1N1CCS(=O)(=O)CC1)C1CC1` (racemic) [Example 182, 2-Amino-N-((8-chloro-5-(1,1-dioxidothio-morpholino)imidazo [1,5-a]pyridin-6-yl)(cyclopropyl)methyl)pyrazolo [1,5-a] pyrimidine-3-carboxamide trifluoroacetate salt]: the 50% inhibitory concentration (IC50) in test [1] is under 100 nM; in test [2] (setting [4]) it was under 500 nM; in test [3], under 100 nM.
`CCOc1c(C(C)NC(=O)c2c(N)nn3cccnc23)cc(Cl)c2cn[nH]c12` (single isomer, unassigned) [Example 3a, 2-amino-N-[1-(4-chloro-7-ethoxy-1H-indazol-6-yl)ethyl]pyrazolo[1,5-a]pyrimidine-3-carboxamide trifluoroacetate]: the IC50 in test [1] was under 100 nM; in test [2] (setting [4]), under 500 nM; in test [3] it was under 100 nM.
`CC(NC(=O)c1c(N)nn2cccnc12)c1cc(Cl)c2cncn2c1N1CCS(=O)(=O)CC1` (single isomer, unassigned) [Example 36A, 2-Amino-N-(1-[8-chloro-5-(1,1-dioxidothiomorpholin-4-yl)imidazo[1,5-a]pyridin-6-yl]ethyl)pyrazolo[1,5-a]pyrimidine-3-carboxamide]: the values for the half-maximal inhibitory concentration (IC50) in test [1], in test [2] (setting [4]) and in test [3] were under 100 nM, under 500 nM and under 100 nM, respectively.
In the case of `CC(NC(=O)c1c(N)nn2cccnc12)c1cc(Cl)c2cncn2c1N1CCS(=O)(=O)CC1C` (single isomer, unassigned) [Example 38A, 2-Amino-N-(1-[8-chloro-5-(3-methyl-1,1-dioxidothiomorpholin-4-yl)imidazo[1,5-a]pyridin-6-yl]ethyl)pyrazolo[1,5-a]pyrimidine-3-carboxamide trifluoroacetate salt], the IC50 is under 100 nM in test [1], under 500 nM in test [2] (setting [4]) and under 100 nM in test [3].
As to `CC(NC(=O)c1c(N)nn2cccnc12)c1cc(Cl)c2cncn2c1N1CCCC(F)C1` (single isomer, unassigned) [Example 73A, 2-Amino-N-{1-[8-chloro-5-(3-fluoropiperidin-1-yl)imidazo[1,5-a]pyridin-6-yl]ethyl}pyrazolo[1,5-a]pyrimidine-3-carboxamide], the IC50 was under 100 nM in test [1], under 500 nM in test [2] (setting [4]) and under 100 nM in test [3].
For `CC(NC(=O)c1c(N)nn2cccnc12)c1cc(Cl)c2cncn2c1N1CCCC(F)C1` (single isomer, unassigned) [Example 73B, 2-Amino-N-{1-[8-chloro-5-(3-fluoropiperidin-1-yl)imidazo[1,5-a]pyridin-6-yl]ethyl}pyrazolo[1,5-a]pyrimidine-3-carboxamide], the IC50 in test [1] is under 100 nM; in test [2] (THP-1 cells), under 500 nM; in test [3], under 100 nM.
For the molecule `CC(NC(=O)c1c(N)nn2cccnc12)c1cc(Cl)c2cncn2c1N1CCCC(C)(O)C1` (single isomer, unassigned) [Example 76A, 2-Amino-N-{1-[8-chloro-5-(3-hydroxy-3-methylpiperidin-1-yl)imidazo[1,5-a]pyridin-6-yl]ethyl}pyrazolo[1,5-a]pyrimidine-3-carboxamide trifluoroacetate], the IC50 is under 100 nM in test [1], under 500 nM in test [2] (setting [4]) and under 100 nM in test [3].
Turning to `CC(NC(=O)c1c(N)nn2cccnc12)c1cc(Cl)c2cncn2c1N1CCCC(C)(O)C1` (single isomer, unassigned) [Example 76B, 2-Amino-N-{1-[8-chloro-5-(3-hydroxy-3-methylpiperidin-1-yl)imidazo[1,5-a]pyridin-6-yl]ethyl}pyrazolo[1,5-a]pyrimidine-3-carboxamide trifluoroacetate], the results for the IC50 in test [1], in test [2] (THP-1 cells) and in test [3] were under 100 nM, under 500 nM and under 500 nM, respectively.
With `CC(NC(=O)c1c(N)nn2cccnc12)c1cc(Cl)c2cncn2c1N1CCCC(C)(C#N)C1` (single isomer, unassigned) [Example 77A, 2-Amino-N-{1-[8-chloro-5-(3-cyano-3-methylpiperidin-1-yl)imidazo[1,5-a]pyridin-6-yl]ethyl}pyrazolo[1,5-a]pyrimidine-3-carboxamide trifluroacetate], the IC50 in test [1] was under 100 nM; in test [2] (setting [4]), under 500 nM; in test [3], under 500 nM.
On to `CC(NC(=O)c1c(N)nn2cccnc12)c1cc(Cl)c2cncn2c1N1CCCC(C)(C#N)C1` (single isomer, unassigned) [Example 77B, 2-Amino-N-{1-[8-chloro-5-(3-cyano-3-methylpiperidin-1-yl)imidazo[1,5-a]pyridin-6-yl]ethyl}pyrazolo[1,5-a]pyrimidinc-3-carboxamide trifluroacetate], for which the IC50 is under 100 nM in test [1], under 500 nM in test [2] (THP-1 cells) and under 100 nM in test [3].
Turning to `CC(NC(=O)c1c(N)nn2cccnc12)c1cc(Cl)c2cncn2c1N1CCCC(O)(C(F)(F)F)C1` (single isomer, unassigned) [Example 78A, 2-Amino-N-(1-{8-chloro-5-[3-hydroxy-3-(trifluoromethyl)piperidin-1-yl]imidazo[1,5-a]pyridin-6-yl}ethyl)pyrazolo[1,5-a]pyrimidine-3-carboxamide trifluoroacetate], the IC50 in test [1] is under 100 nM; in test [2] (setting [4]), under 500 nM; in test [3], under 500 nM.
For the molecule `CC(NC(=O)c1c(N)nn2cccnc12)c1cc(Cl)c2cncn2c1N1CCCC(O)(C(F)(F)F)C1` (single isomer, unassigned) [Example 78B, 2-Amino-N-(1-{8-chloro-5-[3-hydroxy-3-(trifluoromethyl)piperidin-1-yl]imidazo[1,5-a]pyridin-6-yl}ethyl)pyrazolo[1,5-a]pyrimidine-3-carboxamide trifluoroacetate], the IC50 in test [1] is under 100 nM; in test [2] (THP-1 cells), under 500 nM; in test [3], under 100 nM.
`CC(NC(=O)c1c(N)nn2cccnc12)c1cc(Cl)c2cn[nH]c2c1N1CCC(O)C1` (single isomer, unassigned) [Example 90B, 2-Amino-N-{1-[4-chloro-7-(3-hydroxypyrrolidin-1-yl)-2H-indazol-6-yl]ethyl}pyrazolo[1,5-a]pyrimidine-3-carboxamide bis(trifluoroacetate)]: the IC50 was under 100 nM in test [1], under 500 nM in test [2] (setting [4]) and under 500 nM in test [3].
For the molecule `CNC(=O)C1CCN(c2c(C(C)NC(=O)c3c(N)nn4cccnc34)cc(Cl)c3cn[nH]c23)C1` (single isomer, unassigned) [Example 103A, 2-Amino-N-[1-(4-chloro-7-{3-[(methylamino)carbonyl]pyrrolidin-1-yl}-2H-indazol-6-yl)ethyl]pyrazolo[1,5-a]pyrimidine-3-carboxamide trifluoroacetate], the IC50 is under 100 nM in test [1], under 1000 nM in test [2] (setting [4]) and under 500 nM in test [3].
